Test results taken from patent US9873883B2, “Glyphosate resistant plants and associated methods” (Dow AgroSciences LLC, priority 2012, dated 2018).

How the values were obtained:
[1] = target: T1, Glycine max (soybean) EPSP synthase DGT-1 variant DGT-1 v8 (T→I, P→S; TIPS) (Glycine max, UniProt I1J7U9, P187S/T183I); experiment: In vitro kinetic assay (inorganic phosphate production, malachite green); assay type: biochemical
T1 sequence (I1J7U9 with tags, fused parts or gaps T183I/P187S): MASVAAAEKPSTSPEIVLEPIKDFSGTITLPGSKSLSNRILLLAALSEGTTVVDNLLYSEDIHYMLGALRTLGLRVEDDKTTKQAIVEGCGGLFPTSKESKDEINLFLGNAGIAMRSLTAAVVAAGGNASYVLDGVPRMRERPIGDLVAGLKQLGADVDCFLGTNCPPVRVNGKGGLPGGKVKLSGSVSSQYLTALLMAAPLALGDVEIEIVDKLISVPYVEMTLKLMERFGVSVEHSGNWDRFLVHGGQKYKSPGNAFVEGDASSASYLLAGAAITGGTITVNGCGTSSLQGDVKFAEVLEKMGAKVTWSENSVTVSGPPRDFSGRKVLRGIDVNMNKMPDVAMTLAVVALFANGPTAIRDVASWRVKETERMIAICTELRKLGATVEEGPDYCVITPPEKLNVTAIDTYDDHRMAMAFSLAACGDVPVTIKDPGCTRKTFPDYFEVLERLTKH
Description: (§1) The following Class I enzymes: DGT-1 from Glycine max, DGT-3 from Brassica napus (GENBANK ACC NO: P17688), and DGT-7 from Triticum aestivum (GENBANK ACC NO: EU977181) were used as a comparison. The Class I EPSP synthase enzymes and mutant variants thereof were synthesized and evaluated. A mutation introduced into the plant EPSP synthase enzymes consisted of the Glycine to Alanine mutation made within the EPSP synthase enzyme at a similar location as that of the G96A mutation from the E. coli version of the enzyme. In addition, Threonine to Isoleucine and Proline to Serine mutations were introduced within these Class I EPSP synthase enzymes at analogous positions as that of amino acid 97 (T to I) and amino acid 101 (P to S) in the EPSP synthase of E. coli as described in Funke et al., (2009).
(§2) The location of the amino acid residue which was mutated from glycine to alanine is indicated by the first asterisk. The location of the amino acid residue which was mutated from threonine to isoleucine is indicated by the second asterisk. The location of the third amino acid residue which was mutated from proline to serine is indicated by the third asterisk. These mutations were introduced into different versions of DGT-1, DGT-3, and DGT-7. The different versions of the genes which contain the mutations are described in more detail below.
(§3) Additional constructs containing the dgt-1, dgt-3 and dgt-7 were synthesized. These constructs were used for in vitro testing of the dgt-1 v5, dgt-1 v6, dgt-1 v7, dgt-1 v8, dgt-3 v6, dgt-3 v7, dgt-3 v8, dgt-7 v5, dgt-7 v6, dgt-7 v7, and dgt-7 v8 gene sequences were outsourced to GeneArt for synthesis and cloning. The synthesized genes were cloned into the pET28 expression vector. The resulting constructions were labeled as pDAB102028 containing dgt-1 v5, pDAB102029 containing dgt-1 v6, pDAB102032 containing dgt-1 v7, pDAB102034 containing dgt-1 v8, pDAB100429 containing dgt-3 v6, pDAB100442 containing dgt-3 v7, pDAB100430 containing dgt-3 v8, pDAB102036 containing dgt-7 v5, pDAB102038 containing dgt-7 v6, pDAB102040 containing dgt-7 v7, and pDAB102042 containing dgt-7 v8.
(§4) Recombinant DGT proteins were overexpressed in Rosetta2™ (DE3) cells (Novagen, Madison, Wis.) from the constructs described above. A single colony was used to inoculate 50 mL starter cultures of LB containing chloramphenicol (25 μg/mL) and kanamycin (50 μg/mL) which were cultivated overnight at 37° C. The overnight cultures were used to inoculate 1 L of LB containing chloramphenicol (25 μg/mL) and kanamycin (50 μg/mL). The cultures were grown at 37° C. to an O.D.600=0.6 then placed in an ice water bath for 10 minutes. Expression of the target proteins was achieved by addition of IPTG to a final concentration of 500 μM. Induction was allowed to proceed overnight at 20° C. followed by harvesting via centrifugation at 8,000 rpm for 20 minutes. The cell pellets were stored at −80° C. until required for purification. All purification steps were carried out at 4° C.
(§5) Cell pellets from 1 L cultures were resuspended in 20-30 mL Buffer A (50 mM HEPES pH 7.5, 150 mM KCl, 2 mM DTT, 1 mM EDTA, 20 mM imidazole, and 5% glycerol). COMPLETE™ protease inhibitor cocktail (1 tablet/50 mL, Roche, Indianapolis, Ind.) and lysozyme (1 mg/mL, Sigma-Aldrich, St. Louis, Mo.) were then added and the suspension was stirred for 20 minutes. Cell lysis was performed using a Branson Sonifier 250 (3×60 second bursts) followed by removal of the cell debris by centrifugation at 16,000 rpm for 45 minutes. DGT enzymes were purified to homogeneity in one step via immobilized metal affinity chromatography (IMAC) using a 5 mL HisTrap FF crude column. The column was equilibrated in Buffer A and the sample was loaded in the same buffer. The column was then washed with 10 column volumes of Buffer A followed by elution in a 0-100% Buffer B (50 mM HEPES pH 7.5, 200 mM KCl, 2 mM DTT, 1 mM EDTA, 500 mM imidazole, and 5% glycerol) linear gradient over 25 column volumes. […]

[2] = target: T2, Triticum aestivum (wheat) EPSP synthase DGT-7 variant DGT-7 v6 (G→A) (Triticum aestivum, UniProt B5M6A1, G167A); experiment: as above; assay type: biochemical; details: for IC50: IC50 (glyphosate)
T2 sequence (B5M6A1 with tags, fused parts or gaps G167A): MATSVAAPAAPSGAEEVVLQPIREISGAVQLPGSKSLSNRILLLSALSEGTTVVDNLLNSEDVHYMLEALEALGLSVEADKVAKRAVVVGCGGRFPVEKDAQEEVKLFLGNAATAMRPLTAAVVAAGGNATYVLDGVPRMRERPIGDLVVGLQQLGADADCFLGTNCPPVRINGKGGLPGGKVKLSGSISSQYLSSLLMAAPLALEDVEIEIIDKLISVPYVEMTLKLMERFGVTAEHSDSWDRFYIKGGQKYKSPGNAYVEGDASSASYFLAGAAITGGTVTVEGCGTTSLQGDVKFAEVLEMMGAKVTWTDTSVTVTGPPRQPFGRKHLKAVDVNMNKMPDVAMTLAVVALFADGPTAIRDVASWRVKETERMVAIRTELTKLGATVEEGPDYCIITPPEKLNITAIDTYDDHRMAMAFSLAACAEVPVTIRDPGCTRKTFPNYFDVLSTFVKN
Description: as §1, §2, §3, §4, §5

Row | Structure (SMILES) | kcat/Km ([1]; PEP, pH 7.5, 1 mM S3P) [M⁻¹ s⁻¹] | increase of Km for PEP ([2]; G to A mutation vs un-mutated) [fold] | IC50 ([1]; IC50 (glyphosate), at 60 μM PEP) [mM] | IC50 ([1]; IC50 (glyphosate), at 1 mM PEP) [mM] | IC50 ([1]; tolerance to glyphosate, PEP concentration not given) [mM] | IC50 ([2]; at 60 μM PEP) [mM] | IC50 ([2]; at 1 mM PEP) [mM]
1 | C=C(OP(=O)(O)O)C(=O)O [PEP, phosphoenolpyruvate] | 12300 | ~8 | – | – | – | – | –
2 | O=C(O)CNCP(=O)(O)O [glyphosate, N-(phosphonomethyl)glycine] | – | – | 5.9 | 13.3 | 3 to 6 | 15.1 | 8.1
